Data published in US11053218B2, “3-(1-oxoisoindolin-2-yl)piperidine-2,6-dione derivatives and uses thereof” (Novartis AG, priority 2017, dated 2021).
Where two headings read alike, the source gives them in different places.

Assays:
IKZF2 = IKZF2 (Homo sapiens, UniProt Q96SW2+Q9UKS7); experiment: Prolabel quantification of IKZF2 protein levels in 293GT cells; assay type: cell-based; conditions: 293GT cells; for inhibition at 10 µM: read-out: IKZF2 % protein reduction at 10 μM, 24 h; for DC50: Prolabel assay, read-out: IKZF2 EC50
Description: (§1) The Prolabel system from DiscoverX was used to develop high-throughput and quantitative assays to measure changes in IKZF1, IKZF2 and GSPT1 protein levels in response to compounds. The prolabel tag was derived from the alpha fragment of beta galactosidase and has the following protein sequence: mssnslavvlqrrdwenpgvtqlnrlaahppfaswrnseeartdrpsqqlrslnge. The complementary fragment of beta-galactosidase (from DiscoverX), is added to the prolabel tag to form an active beta galactosidase enzyme whose activity can be precisely measured. In this way, the levels of a fusion protein with the prolabel tag can be quantified in cell lysates.
(§2) Lentiviral vectors, based on the Invitrogen pLenti6.2/V5 DEST backbone, were constructed that placed the prolabel tag upstream of IKZF1, IKZF2 or GSPT1 and expressed the fusion protein from a CMV promoter.
(§3) To ensure moderate and consistent expression of the prolabel fusion proteins across all cells in the population, stable cell lines were constructed from cells expressing a single copy of the construct. Lentivirus packaged with the constructs was made using the Virapower kit from Invitrogen.
(§4) The levels of prolabel tagged fusion proteins in compound treated cell lines were measured as follows:
(§5) Day 1, Cells were diluted to 1.0×10^6 cells/ml in normal growth medium. 17.5 μL of cells were plated in each well of a solid white 384 well plate. Plates were incubated overnight in a 37° C. tissue culture incubator.
(§6) Day 2, Serial dilutions of compounds were made in 384 well plates from 10 mM stocks. 15 μL of DMSO was added to each well of a 384 well plate. In the first column 15 μL of stock compound was added. The solution was mixed and 15 μL was transferred to the next column. This was repeated until 20 two-fold dilutions were prepared. 2.5 μL of diluted compounds were transferred into 60 μL of cell culture medium in another 384 well plate, and mixed well. 2.5 μL of this mixture was added to the plated cells. The final DMSO concentration was 0.5% and the highest concentration of compound was 50 μM. Plates were incubated overnight (e.g., about 14 h, 18 h, or 24 h) in a 37° C. tissue culture incubator.
(§7) Day 3, Plates were removed from the incubator and allowed to equilibrate at rt for 30 minutes. Prolabel substrate (DiscoverX PathHunter Prolabel Detection Kit, User manual: 93-0180) was added as described by the manufacturers protocols. Plates were incubated at rt for three hours and luminescence was read using an Envision reader (Perkin Elmer) Data was analyzed and visualized using the Spotfire software package.

IKZF1 = IKZF1 (Homo sapiens, UniProt Q13422+Q96SW2); experiment: Prolabel quantification of IKZF1 protein levels in 293GT cells; assay type: cell-based; conditions: Prolabel assay, read-out: IKZF1 EC50
Description: as §1, §2, §3, §4, §5, §6, §7

Sequence of IKZF2 (Q9UKS7 whole entry, the tested form may be a part): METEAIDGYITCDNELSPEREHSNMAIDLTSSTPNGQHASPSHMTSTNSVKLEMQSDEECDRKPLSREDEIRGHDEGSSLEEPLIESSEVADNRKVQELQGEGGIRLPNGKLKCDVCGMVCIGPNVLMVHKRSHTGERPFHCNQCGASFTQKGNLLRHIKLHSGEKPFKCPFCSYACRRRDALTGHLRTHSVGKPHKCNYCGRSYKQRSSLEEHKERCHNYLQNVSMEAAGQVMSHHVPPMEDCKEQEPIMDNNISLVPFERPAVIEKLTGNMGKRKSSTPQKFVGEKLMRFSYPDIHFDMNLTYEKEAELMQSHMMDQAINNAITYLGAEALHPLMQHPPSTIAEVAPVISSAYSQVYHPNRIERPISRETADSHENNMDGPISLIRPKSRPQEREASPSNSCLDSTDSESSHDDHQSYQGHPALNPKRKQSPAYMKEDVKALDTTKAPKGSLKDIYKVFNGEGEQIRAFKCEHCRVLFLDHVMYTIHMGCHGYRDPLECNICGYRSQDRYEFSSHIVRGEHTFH
Sequence of IKZF2 (Q96SW2 whole entry, the tested form may be a part): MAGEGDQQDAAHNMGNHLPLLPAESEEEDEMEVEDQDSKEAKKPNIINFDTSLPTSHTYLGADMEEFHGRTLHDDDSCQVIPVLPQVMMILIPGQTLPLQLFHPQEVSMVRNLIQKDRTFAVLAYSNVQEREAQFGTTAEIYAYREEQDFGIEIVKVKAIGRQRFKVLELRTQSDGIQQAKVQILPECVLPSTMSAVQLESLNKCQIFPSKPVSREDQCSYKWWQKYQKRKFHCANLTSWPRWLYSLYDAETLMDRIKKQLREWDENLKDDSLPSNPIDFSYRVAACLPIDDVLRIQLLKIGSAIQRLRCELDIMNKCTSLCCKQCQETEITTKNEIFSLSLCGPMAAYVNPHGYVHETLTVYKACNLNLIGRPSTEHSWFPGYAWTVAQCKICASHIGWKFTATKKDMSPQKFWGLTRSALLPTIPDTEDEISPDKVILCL
Sequence of IKZF2 (Q16531 whole entry partner, the tested form may be a part): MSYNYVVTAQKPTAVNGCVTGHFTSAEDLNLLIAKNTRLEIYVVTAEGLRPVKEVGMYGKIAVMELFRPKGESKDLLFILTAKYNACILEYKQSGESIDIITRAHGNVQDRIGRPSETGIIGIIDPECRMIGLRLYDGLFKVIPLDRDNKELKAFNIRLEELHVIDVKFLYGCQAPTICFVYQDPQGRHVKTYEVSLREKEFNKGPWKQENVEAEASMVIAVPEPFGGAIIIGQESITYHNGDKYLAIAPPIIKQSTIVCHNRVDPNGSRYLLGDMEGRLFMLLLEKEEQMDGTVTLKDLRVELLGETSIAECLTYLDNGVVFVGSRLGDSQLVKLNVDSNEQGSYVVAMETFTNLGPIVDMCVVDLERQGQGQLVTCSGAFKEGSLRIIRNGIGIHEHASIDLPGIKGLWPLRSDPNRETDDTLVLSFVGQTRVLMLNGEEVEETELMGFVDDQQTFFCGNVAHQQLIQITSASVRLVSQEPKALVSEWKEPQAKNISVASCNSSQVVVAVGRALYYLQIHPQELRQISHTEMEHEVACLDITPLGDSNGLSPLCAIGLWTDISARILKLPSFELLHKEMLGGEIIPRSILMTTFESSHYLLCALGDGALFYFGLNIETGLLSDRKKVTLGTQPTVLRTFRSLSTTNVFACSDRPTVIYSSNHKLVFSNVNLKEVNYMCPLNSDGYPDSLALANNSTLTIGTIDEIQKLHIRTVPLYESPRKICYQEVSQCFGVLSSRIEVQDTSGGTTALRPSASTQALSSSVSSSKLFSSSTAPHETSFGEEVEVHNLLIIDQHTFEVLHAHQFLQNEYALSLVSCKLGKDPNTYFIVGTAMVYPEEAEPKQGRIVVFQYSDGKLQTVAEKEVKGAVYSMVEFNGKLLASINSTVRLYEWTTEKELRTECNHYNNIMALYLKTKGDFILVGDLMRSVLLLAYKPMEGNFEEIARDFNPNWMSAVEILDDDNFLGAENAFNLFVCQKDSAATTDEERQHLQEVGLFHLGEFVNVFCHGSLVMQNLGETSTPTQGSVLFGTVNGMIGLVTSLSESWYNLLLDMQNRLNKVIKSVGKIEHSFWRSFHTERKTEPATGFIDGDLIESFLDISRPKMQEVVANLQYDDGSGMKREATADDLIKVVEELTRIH
Sequence of IKZF1 (Q13422 whole entry): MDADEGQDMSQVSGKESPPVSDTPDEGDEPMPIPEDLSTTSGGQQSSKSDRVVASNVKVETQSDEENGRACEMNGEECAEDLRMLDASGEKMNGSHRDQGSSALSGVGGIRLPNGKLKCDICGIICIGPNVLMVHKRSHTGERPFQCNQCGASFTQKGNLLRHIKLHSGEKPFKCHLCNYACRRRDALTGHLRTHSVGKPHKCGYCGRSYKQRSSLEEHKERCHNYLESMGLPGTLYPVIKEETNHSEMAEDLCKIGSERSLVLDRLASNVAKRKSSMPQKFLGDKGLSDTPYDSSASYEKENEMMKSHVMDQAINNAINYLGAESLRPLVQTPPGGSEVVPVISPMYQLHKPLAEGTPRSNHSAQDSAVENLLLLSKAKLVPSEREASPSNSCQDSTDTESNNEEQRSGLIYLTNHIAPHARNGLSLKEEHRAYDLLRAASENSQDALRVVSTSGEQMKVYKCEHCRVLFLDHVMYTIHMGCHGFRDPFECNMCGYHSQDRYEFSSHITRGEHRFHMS
Sequence of IKZF1 (Q96SW2 whole entry): as the sequence (Q96SW2 whole entry, the tested form may be a part) above
Sequence of IKZF1 (Q16531 whole entry partner): as the sequence (Q16531 whole entry partner, the tested form may be a part) above

inhibition at 10 µM (IKZF2; 24 h, 10 μM, 24 h) [%] | DC50 (IKZF2) [nM] | DC50 (IKZF1) [nM] | IKZF2 % protein reduction at 10 μM, 24 h (IKZF2; 10 μM, 24 h) [%] | SMILES | inhibition at 10 µM (IKZF2; 10 μM, 24 h) [%]
40 | 12 | > 50000 |  | O=C1CCC(N2Cc3cc(C4CCN(Cc5ccon5)CC4)ccc3C2=O)C(=O)N1 (stereo not drawn) [Compound I-246, 3-(5-(1-(isoxazol-3-ylmethyl)piperidin-4-yl)-1-oxoisoindolin-2-yl)piperidine-2,6-dione] | 
60 | 9 | > 30000 |  | Cc1ccc(CN2CCC(c3ccc4c(c3)CN(C3CCC(=O)NC3=O)C4=O)CC2)c(C)c1 (stereo not drawn) [Compound I-42, 3-(5-(1-(2,4-dimethylbenzyl)piperidin-4-yl)-1-oxoisoindolin-2-yl)piperidine-2,6-dione] | 
60 | 390 | > 30000 |  | O=C1CCC(N2Cc3cc(C4CCN(Cc5cnc6cnccn56)CC4)ccc3C2=O)C(=O)N1 (stereo not drawn) [Compound I-126] | 
60 | 27 | > 30000 |  | O=C1CCC(N2Cc3cc(C4CCN(CC5CCC5)CC4)ccc3C2=O)C(=O)N1 (stereo not drawn) [Compound I-5, 3-(5-(1-(cyclobutylmethyl)piperidin-4-yl)-1-oxoisoindolin-2-yl)piperidine-2,6-dione] | 
65 | 14 | > 30000 |  | O=C1CCC(N2Cc3cc(C4CCN(CCc5ccccc5)CC4)ccc3C2=O)C(=O)N1 (stereo not drawn) [Compound I-14, 3-(1-oxo-5-(1-phenethylpiperidin-4-yl)isoindolin-2-yl)piperidine-2,6-dione] | 
60 | 5 | > 30000 |  | O=C1CCC(N2Cc3cc(C4CCN(Cc5ccccc5C5CC5)CC4)ccc3C2=O)C(=O)N1 (stereo not drawn) [Compound I-104, 3-(5-(1-(2-cyclopropylbenzyl)piperidin-4-yl)-1-oxoisoindolin-2-yl)piperidine-2,6-dione] | 
80 | 9 | > 30000 |  | O=C1CCC(N2Cc3cc(C4CCN(Cc5ccc6c(c5)NCCS6)CC4)ccc3C2=O)C(=O)N1 (stereo not drawn) [Compound I-141, 3-(5-(1-((3,4-dihydro-2H-benzo[b][1,4]thiazin-6-yl)methyl)piperidin-4-yl)-1-oxoisoindolin-2-yl)piperidine-2,6-dione] | 
60 | 1080 | > 30000 |  | O=C1CCC(N2Cc3cc(C4CCN(Cc5cnc6ncccn56)CC4)ccc3C2=O)C(=O)N1 (stereo not drawn) [Compound I-132, 3-(5-(1-(imidazo[1,2-a]pyrimidin-3-ylmethyl)piperidin-4-yl)-1-oxoisoindolin-2-yl)piperidine-2,6-dione] | 
60 | 4 | > 30000 |  | N#CCOc1ccc(CN2CCC(c3ccc4c(c3)CN(C3CCC(=O)NC3=O)C4=O)CC2)cc1 (stereo not drawn) [Compound I-218, 2-(4-((4-(2-(2,6-dioxopiperidin-3-yl)-1-oxoisoindolin-5-yl)piperidin-1-yl)methyl)phenoxy)acetonitrile] | 
60 | 160 | > 30000 |  | O=C1CCC(N2Cc3cc(C4CCN(Cc5cn[nH]c5)CC4)ccc3C2=O)C(=O)N1 (stereo not drawn) [Compound I-116, 3-(5-(1-((1H-pyrazol-4-yl)methyl)piperidin-4-yl)-1-oxoisoindolin-2-yl)piperidine-2,6-dione] | 
80 | 46 | > 30000 |  | O=C1CCC(N2Cc3cc(C4CCN(Cc5ccc(CO)cc5)CC4)ccc3C2=O)C(=O)N1 (stereo not drawn) [Compound I-32, 3-(5-(1-(4-(hydroxymethyl)benzyl)piperidin-4-yl)-1-oxoisoindolin-2-yl)piperidine-2,6-dione] | 
40 | 29 | > 50000 |  | O=C1CCC(N2Cc3cc(C4CCN(Cc5cccc6cccnc56)CC4)ccc3C2=O)C(=O)N1 (stereo not drawn) [Compound I-114, 3-(1-oxo-5-(1-(quinolin-8-ylmethyl)piperidin-4-yl)isoindolin-2-yl)piperidine-2,6-dione] | 
80 | 8 | > 30000 |  | CC(C)c1ccc(CN2CCC(c3ccc4c(c3)CN(C3CCC(=O)NC3=O)C4=O)CC2)cc1 (stereo not drawn) [Compound I-45, 3-(5-(1-(4-isopropylbenzyl)piperidin-4-yl)-1-oxoisoindolin-2-yl)piperidine-2,6-dione] | 
10 | 4200 | > 30000 |  | O=C1CCC(N2Cc3cc(C4=CCN(Cc5ccccc5)C4)ccc3C2=O)C(=O)N1 (stereo not drawn) [Compound I-191, 3-(5-(1-benzyl-2,5-dihydro-1H-pyrrol-3-yl)-1-oxoisoindolin-2-yl)piperidine-2,6-dione] | 
70 | 17 | > 30000 |  | C[C@H](c1ccccc1)N1CCC(c2ccc3c(c2)CN(C2CCC(=O)NC2=O)C3=O)CC1 (single isomer, unassigned) [Compound I-247] | 
75 | 91 | > 30000 |  | O=C1CCC(N2Cc3cc(C4CCN(Cc5ccc(OCc6ccc(F)cc6)cc5)CC4)ccc3C2=O)C(=O)N1 (stereo not drawn) [Compound I-244, 3-(5-(1-(4-((4-fluorobenzyl)oxy)benzyl)piperidin-4-yl)-1-oxoisoindolin-2-yl)piperidine-2,6-dione] | 
75 | 17 | > 30000 |  | O=C1CCC(N2Cc3cc(C4CCN(Cc5ccc(C(F)(F)F)cc5)CC4)ccc3C2=O)C(=O)N1 (stereo not drawn) [Compound I-76, 3-(1-oxo-5-(1-(4-(trifluoromethyl)benzyl)piperidin-4-yl)isoindolin-2-yl)piperidine-2,6-dione] | 
30 | 170 | > 30000 |  | O=C1CCC(N2Cc3cc(C4CCCN(Cc5ccccc5)CC4)ccc3C2=O)C(=O)N1 (single isomer, unassigned) [Compound I-190, 3-(5-(1-benzylazepan-4-yl)-1-oxoisoindolin-2-yl)piperidine-2,6-dione] | 
60 | 95 | > 30000 |  | O=C1CCC(N2Cc3cc(C4CCN(Cc5c[nH]nc5-c5cccnc5)CC4)ccc3C2=O)C(=O)N1 (stereo not drawn) [Compound I-151, 3-(1-oxo-5-(1-((3-(pyridin-3-yl)-1H-pyrazol-4-yl)methyl)piperidin-4-yl)isoindolin-2-yl)piperidine-2,6-dione] | 
70 | 58 | > 30000 |  | COc1ccccc1CN1CCC(c2ccc3c(c2)CN(C2CCC(=O)NC2=O)C3=O)CC1 (stereo not drawn) [Compound I-67, 3-(5-(1-(2-methoxybenzyl)piperidin-4-yl)-1-oxoisoindolin-2-yl)piperidine-2,6-dione] | 
75 | 11 | > 30000 |  | O=C1CCC(N2Cc3cc(C4CCN(Cc5ccc(CF)cc5)CC4)ccc3C2=O)C(=O)N1 (stereo not drawn) [Compound I-63, 3-(5-(1-(4-(fluoromethyl)benzyl)piperidin-4-yl)-1-oxoisoindolin-2-yl)piperidine-2,6-dione] | 
60 | 49 | > 30000 |  | O=C1CCC(N2Cc3cc(C4CCN(Cc5ccc(OCc6ccccn6)cc5)CC4)ccc3C2=O)C(=O)N1 (stereo not drawn) [Compound I-255, 3-(1-oxo-5-(1-(4-(pyridin-2-ylmethoxy)benzyl)piperidin-4-yl)isoindolin-2-yl)piperidine-2,6-dione] | 
75 | 30 | > 30000 |  | O=C1CCC(N2Cc3cc(C4CCN(Cc5ccc(S(=O)(=O)C(F)F)cc5)CC4)ccc3C2=O)C(=O)N1 (stereo not drawn) [Compound I-252, 3-(5-(1-(4-((difluoromethyl)sulfonyl)benzyl)piperidin-4-yl)-1-oxoisoindolin-2-yl)piperidine-2,6-dione] | 
 | 210 | > 30000 | 20 | O=C1CCC(N2Cc3cc(C4CCCN(Cc5ccccc5)CC4)ccc3C2=O)C(=O)N1 (single isomer, unassigned) [Compound I-273, 3-(5-(1-benzylazepan-4-yl)-1-oxoisoindolin-2-yl)piperidine-2,6-dione] | 

SMILES | inhibition at 10 µM (IKZF2; 24 h, 10 μM, 24 h) [%] | DC50 (IKZF2) [nM] | DC50 (IKZF1) [nM] | IKZF2 % protein reduction at 10 μM, 24 h (IKZF2; 10 μM, 24 h) [%] | inhibition at 10 µM (IKZF2; 10 μM, 24 h) [%]
CC(C)(C)c1ccc(CN2CCC(c3ccc4c(c3)CN(C3CCC(=O)NC3=O)C4=O)CC2)cc1 (stereo not drawn) [Compound I-84, 3-(5-(1-(4-(tert-butyl)benzyl)piperidin-4-yl)-1-oxoisoindolin-2-yl)piperidine-2,6-dione] |  | 15 | > 30000 |  | 60
